Experimental data as given in US20120064056A1, “DICHLORACETATE IN COMBINATION WITH CLINICALLY HIGH LEVELS OF CARDIOPROTECTIVE OR HEMODYNAMIC DRUGS” (THE GOVERNORS OF THE UNIVERSITY OF ALBERTA TEC Edmonton, priority 2002, published 2012).

Columns and labels:
isolated rat hearts [1] = test: Isolated working rat heart, aerobic perfusion: cardiac function and efficiency; set-up: Cardiac Work (CO · PSP): unit not given beside the values; settings: aerobically perfused, DCA 2 mM, diltiazem 0.8 μM, digoxin 3 nM, metoprolol 1 μM, dobutamine 1 μM
Procedure: (§1) Rat hearts were cannulated for isolated working heart perfusions as described in “An imbalance between glycolysis and glucose oxidation is a possible explanation for the detrimental effects of high levels of fatty acids during aerobic reperfusion of ischemic hearts.”, (J Pharmacol Exp Ther. 264:135 (1993); herein incorporated by reference. In brief, male Sprague-Dawley rats (0.3-0.35 kg) were anesthetized with pentobarbital sodium (60 mg/kg IP) and hearts were quickly excised, the aorta was cannulated and a retrograde perfusion at 37° C. was initiated at a hydrostatic pressure of 60 mm Hg. Hearts were trimmed of excess tissue, and the pulmonary artery and the opening to the left atrium were then cannulated. After 15 min of Langendorff perfusion, hearts were switched to the working mode by clamping the aortic inflow line from the Langendorff reservoir and opening the left atrial inflow line. The perfusate was delivered from an oxygenator into the left atrium at a constant preload pressure of 11 mm Hg. Perfusate was ejected from spontaneously beating hearts into a compliance chamber (containing 1 ml of air) and into the aortic outflow line. The afterload was set at a hydrostatic pressure of 80 mm Hg. All working hearts were perfused with Krebs'-Henseleit solution containing calcium 2.5 mmol/L, glucose 5.5 mmol/L, 3% bovine serum albumin (Fraction V, Boehringer Mannheim), and with 1.2 mmol/L palmitate. Palmitate was bound to the albumin as described previously (Saddik M., et al. J Biol. Chem. 267:3825-3831 (1992)). The perfusate was recirculated, and pH was adjusted to 7.4 by bubbling with a mixture containing 95% O2 and 5% CO2. For the aerobic model hearts, all tested compounds were introduced into the heart 5 minutes into the working mode following Langendorff Perfusion.
Spontaneously beating hearts were used in all perfusions. Heart rate and aortic pressure were measured with a Biopac Systems Inc. blood pressure transducer connected to the aortic outflow line. Cardiac output and aortic flow were measured with Transonic T206 ultrasonic flow probes in the preload and afterload lines, respectively. Coronary flow was calculated as the difference between cardiac output and aortic flow. The O2 contents of the perfusate entering and leaving the heart were measured using YSI™ micro oxygen electrodes placed in the preload and pulmonary arterial lines, respectively. Myocardial O2 consumption (MVO2) was calculated according to the Fick principle, using coronary flow rates and the arteriovenous difference in perfusate O2 concentration. Cardiac work was calculated as the product of systolic pressure and cardiac output. Cardiac efficiency was defined as a ratio of cardiac work to MVO2.

[2] = test system: isolated rat hearts subjected to low flow demand ischemia; test: Isolated working rat heart, low flow demand ischemia: glycolysis and glucose oxidation; settings: FIG. 22, FIG. 28
[3] = test system: isolated rat hearts subjected to low flow demand ischemia; test: Isolated working rat heart, low flow demand ischemia: cardiac function and efficiency; settings: for Aortic Outflow / Cardiac Output / Coronary Flow / HR × PSP / Heart Rate / Peak Systolic Pressure: DCA 2 mM, diltiazem 0.8 μM, metoprolol 1 μM
Procedure: Hearts were trimmed of excess tissue, and the pulmonary artery and the opening to the left atrium were then cannulated. After 15 min of Langendorff perfusion, hearts were switched to the working mode by clamping the aortic inflow line from the Langendorff reservoir and opening the left atrial inflow line. The perfusate was delivered from an oxygenator into the left atrium at a constant preload pressure of 11 mm Hg. […] The afterload was set at a hydrostatic pressure of 80 mm Hg. […] Palmitate was bound to the albumin as described previously ([…]., et al. J Biol. Chem. 267:3825-3831 (1992)). […] For the aerobic model hearts, all tested compounds were introduced into the heart 5 minutes into the working mode following Langendorff Perfusion. Spontaneously beating hearts were used in all perfusions. Heart rate and aortic pressure were measured with a Biopac Systems Inc. blood pressure transducer connected to the aortic outflow line. Cardiac output and aortic flow were measured with Transonic […] ultrasonic flow probes in the preload and afterload lines, respectively. Coronary flow was calculated as the difference between cardiac output and aortic flow. […] Cardiac work was calculated as the product of systolic pressure and cardiac output. Cardiac efficiency was defined as a ratio of cardiac work to MVO2. […] All tested compounds were introduced into the perfusate five minutes into initiation of aerobic perfusion.

isolated rat hearts [4] = test: Isolated working rat heart, aerobic perfusion: glycolysis and glucose oxidation; set-up: glycolytic rates (glycolysis) / glucose oxidation rates: unit not given here; settings: normal hearts, aerobic; FIG. 2, 4, 6, 8; control 3.430±0.604; DCA 2 mM, digoxin 3 nM, diltiazem 0.8 μM, dobutamine 1 μM, metoprolol 1 μM
Procedure: as §1
Glycolysis and glucose oxidation were measured simultaneously by perfusing hearts with [5-^3H/U-^14C] glucose (Liu H., et al. Am J Physiol. 270:H72-H80 (1996); Taegtmeyer Het al. Am J Cardiol. 80:3A-10A (1997)). The total myocardial ^3H2O production and ^14CO2 production were determined at 10 minute intervals for the entirety of the aerobic period, 60 minutes for normal hearts and 30 minutes for the global ischemia and low flow demand ischemia models. In the global ischemia model, the total myocardial ^3H2O and ^14CO2 production were determined at 20 minute intervals for the 60 minute reperfusion period. In the low flow demand ischemia model, the total myocardial ^3H2O and ^14CO2 production were determined at 10 minute intervals for the 30 minute reperfusion period. Glucose oxidation rates were determined by quantitative measurement of ^14CO2 production as described previously (Barbour R. L., et al. Biochemistr. 1923:6503-6062 (1984)).

[5] = low flow ischemia: aerobic period
[6] = low flow ischemia: ischemic period

COc1ccc([C@@H]2Sc3ccccc3N(CCN(C)C)C(=O)[C@@H]2OC(C)=O)cc1 [Diltiazem, diltiazem]
Aortic Outflow (isolated rat hearts [1]): 21 ± 1 mL/min
Cardiac Efficiency (CW · O2^−1) (isolated rat hearts [1]): 1.63 ± 0.37
Cardiac Output (isolated rat hearts [1]): 41 ± 1 mL/min
Cardiac Work (CO · PSP) (isolated rat hearts [1]): 51 ± 1
Coronary Flow (isolated rat hearts [1]): 20 ± 1 mL/min
HR × PSP (isolated rat hearts [1]): 25 ± 1 beats · min^−1 · mmHg · 10^−2
Heart Rate (isolated rat hearts [1]): 202 ± 3 beats · min^−1
O2 Consumption (isolated rat hearts [1]): 38 ± 9 μmolO2 · g dry wt^−1 · min^−1
Peak Systolic Pressure (isolated rat hearts [1]): 127 ± 4 mmHg
Aortic Outflow (isolated rat hearts [1]; listed as diltiazem): 21 ± 1 mL/min
Cardiac Work (CO · PSP) (isolated rat hearts [1]; listed as diltiazem): 51±1
HR × PSP (isolated rat hearts [1]; listed as diltiazem): 25±1 beats · min^−1 · mmHg · 10^−2
Heart Rate (isolated rat hearts [1]; listed as diltiazem): 202±3 beats · min^−1
glycolysis, in words [2]: some attenuation
peak systolic pressure, effect in words ([3]; low flow demand ischemia, Table 1): decreased
Aortic Outflow [3, 5]: 22 ± 1 mL/min
Cardiac Output [3, 5]: 43 ± 1 mL/min
Coronary Flow [3, 5]: 21 ± 1 mL/min
HR × PSP [3, 5]: 28 ± 1 beats · min^−1 · mmHg · 10^−2
Heart Rate [3, 5]: 215 ± 6 beats · min^−1
Peak Systolic Pressure [3, 5]: 131 ± 6 mmHg
Aortic Outflow [3, 6]: 11 ± 4 mL/min
Cardiac Output [3, 6]: 24 ± 4 mL/min
Coronary Flow [3, 6]: 13 ± 1 mL/min
HR × PSP [3, 6]: 28 ± 1 beats · min^−1 · mmHg · 10^−2
Heart Rate [3, 6]: 215 ± 6 beats · min^−1
Peak Systolic Pressure [3, 6]: 131 ± 6 mmHg
cardiac function, in words ([3]; low-flow ischemic period, FIG. 23, FIG. 29): Neither diltiazem, DCA, nor DCA with diltiazem significantly affected
glycolytic rates (glycolysis) (isolated rat hearts [4]): 0.727±0.160
